Source: PMC9353713, “Tumor-targeting cell-penetrating peptide, p28, for glioblastoma imaging and therapy” (Frontiers in Oncology, 2022)

Tests used:
U-118 = assay: Cytotoxicity, MTT assay; format: cell-based, human; settings: U-118, 1 mM, 72 hr, N=3, P<0.001
Experimental: (§1) Cytotoxicity was evaluated by the MTT assay as described previously ([21], [22]). Cells seeded in 96-well plates were exposed to TMZ at various concentrations for 72 hr (N=3 in each concentration). Curves were fitted using GraphPad PRISM (version 5.0) as a function of a nonlinear one-phase decay (maximum iterations: 1,000, Cl: 95%).

LN-229 = assay: Cytotoxicity, MTT assay; format: cell-based, human; settings: LN-229, 1 mM, 72 hr, N=3, P<0.001
Experimental: as §1

[1] = Body weight in xenograft study; format: in vivo, athymic mice; settings: U-118 xenograft mice, over four weeks of i.p. treatment
Experimental: (§2) All animal work was performed under a protocol approved by the University of Illinois at Chicago. Athymic mice at 4-5 weeks old were purchased from The Jackson Laboratory. For orthotopic xenografts, GBM cell lines (LN-229 and U-118) were injected into the cerebral cortex. Following anesthesia, cancer cell suspensions at 5x10^5 cells/3μl were stereotactically injected (2 mm lateral to the sagittal suture, 1 mm anterior to the coronal suture, 3 mm depth) using a Koft model 963 stereotactic apparatus with a 31-gauge Hamilton syringe. After injection, the injection site was covered with sterile bone wax. Tumor growth was monitored by MR imaging. For tumor growth study, GBM cell lines (LN-229 and U-118) at 1.0x10^6 cell/mouse were subcutaneously (s.c.) implanted into the right flank of athymic mice ([22]). When tumors reached 3 mm in diameter, animals were randomized into several groups; PBS (control), TMZ 5 mg/kg (25.7 μmol/kg) 5 injections on Day1-5, and p28 10 mg/kg (3.4 μmol/kg) 3 times weekly, i.p. Body weight was determined 3 times weekly. The tumor volume in each animal was assessed by calipers and calculated 3 times weekly.

U-118 xenograft = assay: Subcutaneous xenograft tumor growth; format: in vivo, athymic mice; settings: U-118 s.c. xenograft, day 20; TMZ 5 mg/kg, p28 10 mg/kg i.p.; N=7/group
Experimental: as §2
(§3) Data processing and statistical analysis were performed using GraphPad Prism. ANOVA test was performed for tumor growth analysis, and P<0.05 was considered statistically significant.

LN-229 xenograft = assay: Subcutaneous xenograft tumor growth; format: in vivo, athymic mice; settings: LN-229 s.c. xenograft, day 20; TMZ 5 mg/kg Day1-5, p28 10 mg/kg 3 times weekly, i.p.; N=5/group; P<0.001
Experimental: as §2, §3

In the case of `Cn1nnc2c(C(N)=O)ncn2c1=O` [TMZ, temozolomide], the “reduction (antiproliferative effect, MTT)” value (U-118) is reported as 36.6%, the “reduction (antiproliferative effect, MTT)” value (LN-229) is reported as 53.2% and the body weight [1] is reported as 29.0 ± 0.8 g. For the same molecule, the “reduction of tumor growth” value (U-118 xenograft) was 24.5% and the “reduction in tumor growth compared to the PBS control group” value (LN-229 xenograft) was 42.4%.
